Data as given in US10201586B2 (dated 2019).
Like-named read-outs stand apart in the source and are kept apart here. Where a SMILES comes first, the peptide text is derived from it. Bridges are numbered along the chain shown (N, C = ends). The star is where a group is joined. X2 = NCCCC[C@H](NC(=O)CCC(=O)NCCCOCCOCCOCCCN*)C(=O)N[C@@H](CCCCN)C(=O)N[C@@H](CCCCNC(=O)CCCC[C@@H]1SC[C@@H]2NC(=O)N[C@@H]21)C(N)=O

How the values were obtained:
TFPI [1] = biological target: T1, TFPI (Homo sapiens, UniProt P10646); assay: % Inhibition @ 2.5µM; conditions: read-out: % Inhibition @ […]
Target sequence in this assay (P10646 29-304 limits assumed): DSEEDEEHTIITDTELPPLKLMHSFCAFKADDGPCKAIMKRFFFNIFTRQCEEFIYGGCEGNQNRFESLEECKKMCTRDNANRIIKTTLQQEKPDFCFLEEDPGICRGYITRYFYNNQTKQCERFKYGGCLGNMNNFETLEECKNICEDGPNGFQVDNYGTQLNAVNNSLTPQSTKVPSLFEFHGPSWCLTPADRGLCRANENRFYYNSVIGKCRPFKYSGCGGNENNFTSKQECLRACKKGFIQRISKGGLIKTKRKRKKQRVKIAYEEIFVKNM

TFPI [2] = biological target: T1, TFPI; assay: IC50 Mean (nM]
Target sequence in this assay (P10646 29-304 limits assumed): as above

human TFPI-1 = biological target: T2, human TFPI-1 (Homo sapiens, UniProt P10646); assay: BIAcore surface plasmon resonance assay; format: binding
T2 construct: human TFPI-1 (residues 29-282 fused at the C-terminus to a 10 His-tag); purchased R&D Systems 2974-PI

TFPI [3] = biological target: T1, TFPI; assay: Progress Curves of Inhibition of FXa | % Inhibit (2.5µM)
TFPI [4] = biological target: T1, TFPI; assay: Extrinsic Tenase Inhibition by TFPI | % Inhibit (2.5µM)
TFPI [5] = biological target: T1, TFPI; assay: % Inhibition @ 2.5µM
TFPI [6] = biological target: T1, TFPI; assay: % Inhibition @ 2.5µM; remark: listed apart in the source
TFPI [7] = biological target: T1, TFPI; assay: Extrinsic Tenase Inhibition by TFPI | % Inhibit (2.5µM); remark: listed apart in the source
TFPI [8] = biological target: T1, TFPI; assay: koff (1/s); conditions: read-out: koff (1/s)
Target sequence in this assay (P10646 29-304 limits assumed): as above

TFPI [9] = biological target: T1, TFPI; assay: Extrinsic Tenase Inhibition by TFPI | EC50 (µM)
Target sequence in this assay (P10646 29-304 limits assumed): as above

TFPI [10] = biological target: T1, TFPI; assay: BiaCore | kon (1/Ms); conditions: read-out: BiaCore | kon (1/Ms)
Target sequence in this assay (P10646 29-304 limits assumed): as above

TFPI [11] = biological target: T1, TFPI; assay: KD (M)
Target sequence in this assay (P10646 29-304 limits assumed): as above

TFPI [12] = biological target: T1, TFPI; assay: Progress Curves of Inhibition of FXa | EC50 (µM)
TFPI [13] = biological target: T1, TFPI; assay: Extrinsic Tenase Inhibition by TFPI | % Inhibit (2.5µM); conditions: read-out: Extrinsic Tenase Inhibition by TFPI | % Inhibit ([…])
TFPI [14] = biological target: T1, TFPI; assay: as above; remark: listed apart in the source
[15] = biological target: Tissue Factor Pathway Inhibitor (TFPI) (Homo sapiens, UniProt P10646); assay: Progress Curves of Inhibition of FXa | % Inhibit (2.5µM)

T2 sequence (P10646 29-282): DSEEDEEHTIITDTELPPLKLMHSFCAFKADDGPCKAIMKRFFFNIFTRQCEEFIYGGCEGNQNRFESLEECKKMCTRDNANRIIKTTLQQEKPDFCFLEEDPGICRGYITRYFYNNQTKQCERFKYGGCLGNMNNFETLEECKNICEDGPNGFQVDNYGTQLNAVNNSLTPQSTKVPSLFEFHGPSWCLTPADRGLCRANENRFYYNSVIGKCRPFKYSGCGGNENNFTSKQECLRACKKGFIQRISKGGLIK

CC(=O)N[C@@H](Cc1ccccc1)C(=O)N[C@@H](CCC(N)=O)C(=O)N[C@@H](CO)C(=O)N[C@@H](CCCCN)C(=O)N[C@@H](CC(N)=O)C(=O)N[C@@H](CC(N)=O)C(=O)N[C@H](C(=O)N[C@@H](Cc1ccccc1)C(=O)N[C@H](C(=O)N[C@@H](Cc1ccccc1)C(=O)NCC(=O)N[C@@H](Cc1ccc(O)cc1)C(=O)N[C@@H](Cc1ccccc1)C(=O)N[C@@H](CCC(=O)O)C(=O)N[C@@H](CCCNC(=N)N)C(=O)N[C@@H](CC(C)C)C(=O)N[C@@H](CCCNC(=N)N)C(=O)N[C@@H](C)C(=O)N[C@@H](CCCCN)C(=O)N[C@@H](CC(C)C)C(N)=O)C(C)C)C(C)C [JBT0297] (Ac-FQSKNNVFVFGYFERLRAKL-NH2)
inhibition at […] (TFPI [1]): 59%
IC50 (TFPI [2]): 0.063 µM
koff (human TFPI-1): 0.014 s⁻¹
kon (human TFPI-1): 500000 M⁻¹ s⁻¹

Ac-SRYKWFSGMRDMKGTMSSVWVKF-NH2 (SEQ ID NO: 1229) [JBT0417]
Progress Curves of Inhibition of FXa | % Inhibit ([…]) (TFPI [3]): 2%
Extrinsic Tenase Inhibition by TFPI | % Inhibit ([…]) (TFPI [4]): 11%
% Inhibition @ […] (TFPI [5]): 0%

Ac-ASFPLAVQLHVSKRSKE-NH2 (SEQ ID NO: 2313) [JBT0363]
% Inhibition @ […] (TFPI [6]): 0%
Extrinsic Tenase Inhibition by TFPI | % Inhibit ([…]) (TFPI [7]): 9%

CSCC[C@@H]1NC(=O)CNC(=O)[C@@H](NC(=O)[C@H](Cc2ccccc2)NC(=O)[C@H](Cc2c[nH]c3ccccc23)NC(=O)[C@H](CCCCN)NC(=O)[C@H](Cc2ccc(O)cc2)NC(=O)[C@H](CCCNC(=N)N)NC(=O)[C@H](CO)NC(=O)[C@H](C)NC(=O)CNC(=O)[C@H](CO)NC(C)=O)CSSC[C@@H](C(=O)N[C@H](C(=O)N[C@@H](Cc2c[nH]c3ccccc23)C(=O)N[C@H](C(=O)N[C@@H](CCCCN)C(N)=O)C(C)C)C(C)C)NC(=O)[C@H](CO)NC(=O)[C@H](CCSC)NC(=O)[C@H]([C@@H](C)O)NC(=O)CNC(=O)[C@H](CCCCN)NC(=O)[C@H](CCSC)NC(=O)[C@H](CC(=O)O)NC(=O)[C@H](CCCNC(=N)N)NC1=O [JBT0320] (Ac-SGASRYKWFCGMRDMKGTMSCVWVK-NH2; disulfide 10-21)
koff (TFPI [8]): 0.0425 s⁻¹
EC50 (TFPI [9]): 6.4 µM
kon (TFPI [10]): 178000 M⁻¹ s⁻¹
Kd (TFPI [11]): 0.238 µM
EC50 (TFPI [12]): 18.8 µM

CC[C@H](C)[C@H](NC(=O)[C@H](CC(=O)O)NC(=O)[C@@H]1CCCN1C(=O)[C@H](Cc1c[nH]c2ccccc12)NC(=O)[C@H](CCSC)NC(=O)[C@@H](NC(=O)[C@H](Cc1c[nH]c2ccccc12)NC(=O)[C@H](Cc1ccccc1)NC(=O)[C@H](Cc1ccc(O)cc1)NC(=O)[C@H](CCCNC(=N)N)NC(=O)[C@@H]1CCCN1C(=O)[C@H](Cc1c[nH]cn1)NC(=O)[C@@H](NC(=O)[C@H](CCC(N)=O)NC(=O)[C@H](Cc1c[nH]c2ccccc12)NC(=O)[C@@H](NC(=O)CNC(=O)[C@H](CO)NC(=O)[C@H](CCCCN)NC(=O)[C@H](CCCCN)NC(C)=O)C(C)C)[C@@H](C)O)[C@@H](C)O)C(=O)N[C@@H](CCCCN)C(=O)NCC(=O)N[C@@H](CCC(=O)O)C(=O)N[C@H](C(=O)N[C@H](C(=O)N[C@H](C(=O)N[C@@H](CC(C)C)C(=O)N[C@@H](Cc1ccccc1)C(=O)NCC(=O)N[C@H](C(=O)N[C@@H](CO)C(=O)NCCCOCCOCCOCCCNC(=O)CCC(=O)N[C@@H](CCCCN)C(=O)N[C@@H](CCCCN)C(=O)N[C@@H](CCCCNC(=O)CCCC[C@@H]1SC[C@@H]2NC(=O)N[C@@H]21)C(N)=O)[C@@H](C)O)C(C)C)[C@@H](C)CC)C(C)C [JBT0103] (Ac-KKSGVWQTHPRYFWTMWPDIKGEVIVLFGTS-X2)
inhibition at […] (TFPI [13]): 21%

Ac- KKPLAVQLHVSKRSKEMALARLYYKTSKK- NH2 (SEQ ID NO: 2129) (Ac-KKPLAVQLHVSKRSKEMALARLYYKTSKK-NH2) [JBT0229]
Extrinsic Tenase Inhibition by TFPI | % Inhibit ([…]) (TFPI [14]): 0%
Progress Curves of Inhibition of FXa | % Inhibit ([…]) [15]: 0%
